Experimental data taken from US20130123357A1, “Methods for Providing Enhanced Resveratrol Activity Using 4-Acetoxy-Resveratrol” (BRIGHAM YOUNG UNIVERSITY, priority 2010, published 2013).

How the values were obtained:
[1] = tested on: Fibrillin; test: Gene array qPCR, human dermal equivalent: Fibrillin; type: cell-based; details: 1.0% 4AR in DMSO, human skin equivalent, 24 hours, mRNA by qPCR
Text: (§1) In this gene array experiment, we examined the ability of 4AR at a one percent concentration in DMSO (where 100% DMSO served as the vehicle) to either stimulate or inhibit several important genes and quantify directly the transcribed messenger RNA (mRNA) levels by Taqman real time PCR. The test material was placed onto a biological barrier (human dermal equivalent) using a MatTek “ready-to-use” in vitro organotypic tissue equivalent, based on well-documented and validated protocols, using the EpiDerm™ Model EPI-200 Kit. The MatTek kits uses normal (non-transformed) donated human cells as the basis for all of its tissue equivalents. These cells are grown (cultured) in standard Millipore Millicell™ Single Well Tissue Culture Plate Inserts at the air liquid interface or ALI. Apical (top) surface of tissue is exposed to air allowing for direct application of test articles. […] Once the 4 AR test material penetrated the human skin barrier equivalent the gene chip was activated and subsequently mRNA levels were quantified and the results represent stimulation or inhibition of a specific gene.
(§2) To investigate the effects of 4AR on the expression of genes associated with the extracellular matrix (ECM) of the skin, qPCR experiments were conducted using the tissue cultures (model system described above) with subsequent quantification of mRNA levels from […] tissue/cells. […]

[2] = tested on: human dermal monolayer fibroblasts; test: Collagen deposition by ELISA for Human Type I collagen C-terminal propeptide; type: cell-based; details: approximately 9 μM, 48 hours, vehicle 0.1% DMSO
Protocol: 4′-Acetoxy-resveratrol was tested to determine whether it can stimulate collagen deposition in human monolayer dermal fibroblasts in the following examples. In this assay, we first determined the toxicity of the test materials (untreated cells, positive control-ascorbate, vehicle=0.1% DMSO, and a range of the 4′-acetoxy-resveratrol molecule, from approximately 10 nM to 10 μM).
The human dermal monolayer fibroblasts were exposed to the test materials for approximately 48 hours. Thereafter, the samples were processed for MTT and collagen deposition, etc.
Collagen deposition by ELISA for Human Type I collagen C-terminal propeptide was determined. Dermal fibroblasts synthesize primarily type I collagen, and the cleavage of the C-terminal propeptide is required for deposition into fibrils within the extracellular matrix. […] The amount of cleaved propeptide is directly proportional to the amount of type I collagen deposited, and can be precisely quantified using purified standards and a commercial ELISA kit (Takara Mirus, Inc., Cat. # TAK-MK-101). After 48 hours in the presence of the test materials or controls, culture medium supernatants were removed and immediately analyzed using the ELISA kit according to manufacturer's instructions using a Molecular Devices Vmax plate 96 well plate reader and SoftMax software. […]

[3] = tested on: IL-1a (interleukin 1a); test: Gene array qPCR, human dermal equivalent: IL-1a; type: cell-based; details: 1.0% 4AR in DMSO, human skin equivalent, 24 hours, mRNA by qPCR
Text: as §1, §2

[4] = tested on: Type IV collagen alpha 2; test: Gene array qPCR, human dermal equivalent: Type IV collagen alpha 2; type: cell-based; details: 1.0% 4AR in DMSO, human skin equivalent, 24 hours, mRNA by qPCR
Text: as §1, §2

[5] = tested on: TNFRSF1A (Tumor necrosis factor receptor superfamily, member 1A); test: Gene array qPCR, human dermal equivalent: TNFRSF1A; type: cell-based; details: 1.0% 4AR in DMSO, human skin equivalent, 24 hours, mRNA by qPCR
Text: as §1, §2

[6] = tested on: S100 Calcium binding protein A8; test: Gene array qPCR, human dermal equivalent: S100 A8; type: cell-based; details: 1.0% 4AR in DMSO, human skin equivalent, 24 hours, mRNA by qPCR
Text: as §1, §2

[7] = tested on: Fos (FBJ murine osteosarcoma viral oncogene); test: Gene array qPCR, human dermal equivalent: Fos; type: cell-based; details: 1.0% 4AR in DMSO, human skin equivalent, 24 hours, mRNA by qPCR
Text: as §1, §2

[8] = tested on: IGF1 (Insulin-like growth factor 1); test: Gene array qPCR, human dermal equivalent: IGF1; type: cell-based; details: 1.0% 4AR in DMSO, human skin equivalent, 24 hours, mRNA by qPCR
Text: as §1, §2

[9] = tested on: FosB (FBJ murine osteosarcoma viral oncogene homolog B); test: Gene array qPCR, human dermal equivalent: FosB; type: cell-based; details: 1.0% 4AR in DMSO, human skin equivalent, 24 hours, mRNA by qPCR
Text: as §1, §2

[10] = Shelf-life stability of the synthesized material; type: physicochemical
Text: The synthetic method described above uses a direct, efficient synthesis at a low cost, and results in improved stability (longer shelf life) where it remains a white crystalline material for over 2 years, as well as higher biological activity (increase absorption, lower dose and longer half-life) with various cosmetic, nutraceuticals (nutritional supplements) and pharmaceutical applications, including (a) anti-aging, anti-oxidant, (b) anti-inflammatory, (c) anti-cancer, (d) neuroprotection (for improved brain health), (e) cardiovascular health, (f) prostate health and (g) skin health, as described below in the following examples.

[11] = tested on: Metallothionein 2; test: Gene array qPCR, human dermal equivalent: Metallothionein 2; type: cell-based; details: 1.0% 4AR in DMSO, human skin equivalent, 24 hours, mRNA by qPCR
Text: as §1, §2

[12] = tested on: IL-1RII (interleukin 1RII); test: Gene array qPCR, human dermal equivalent: IL-1RII; type: cell-based; details: 1.0% 4AR in DMSO, human skin equivalent, 24 hours, mRNA by qPCR
Text: as §1, §2

[13] = tested on: Elastin; test: Gene array qPCR, human dermal equivalent: Elastin; type: cell-based; details: 1.0% 4AR in DMSO, human skin equivalent, 24 hours, mRNA by qPCR
Text: as §1, §2

[14] = tested on: Desmoglein 3; test: Gene array qPCR, human dermal equivalent: Desmoglein 3; type: cell-based; details: 1.0% 4AR in DMSO, human skin equivalent, 24 hours, mRNA by qPCR
Text: as §1, §2

[15] = tested on: Catalase; test: Gene array qPCR, human dermal equivalent: Catalase; type: cell-based; details: 1.0% 4AR in DMSO, human skin equivalent, 24 hours, mRNA by qPCR
Text: as §1, §2

[16] = tested on: COX 2 (PTGS2); test: Gene array qPCR, human dermal equivalent: COX 2; type: cell-based; details: 1.0% 4AR in DMSO, human skin equivalent, 24 hours, mRNA by qPCR
Text: as §1, §2

[17] = tested on: Superoxide dismutase 2, mitochondrial; test: Gene array qPCR, human dermal equivalent: SOD2; type: cell-based; details: 1.0% 4AR in DMSO, human skin equivalent, 24 hours, mRNA by qPCR
Text: as §1, §2

[18] = Body weight gain and food/water intake in rats, 21 days; type: in vivo, adult male Long-Evans rats
Protocol: Adult male Long-Evans rats were administered 4AR for 21 days. DMSO served as the control and 4AR was dissolved into DMSO at the following concentrations: 5.0 mg/kg body weight, 20.0 mg/kg body weight and 90.0 mg/kg body weight (n=12 per group).
After 10 days of receiving the treatments there was a significant decrease in body weight gain, by an average of approximately 17 grams, in the 90.0 mg/kg vs. the control values (525.0+5.1 vs. 542.1+6.2 grams, respectively. After 20 days on the treatments there was a significant decrease in body weight gain, by approximately 14 grams, in the 20.0 mg/kg vs. control values (566.0+4.7 vs. 551.8+3.7 grams). Finally, there was an even greater significant decrease in body weight gain between the 90.0 mg/kg vs. control values after 20 days on the treatments representing a 54.2 grams decrease (or 566.0+4.7 vs. 511.8+4.1 grams).

CC(=O)Oc1ccc(C=Cc2cc(O)cc(O)c2)cc1 [4AR, 3,5-dihydroxy-4′-acetoxy stilbene]
Fibrillin increased by [1]: 1.3-fold with | increase of collagen deposition compared to vehicle control [2]: 65% | IL-1a decreased by [3]: 10.1-fold | IV collagen alpha 2 increased by [4]: 1.8-fold | TNFRSF1A decreased by [5]: 1.4-fold | S100 Calcium binding protein A8 decreased by [6]: 2.7-fold | Fos increased by [7]: 3.4-fold | IGF1 increased by [8]: 2.6-fold | FosB increased by [9]: 8.2-fold | stability (shelf life): remains a white crystalline material [10]: over 2 years | Metallothionein 2 increased by [11]: 3.4-fold | IL-1RII decreased by [12]: 1.9-fold | Elastin increased by [13]: 2.8-fold | Desmoglein 3 decreased by [14]: by 1.9-fold | Catalase increased by [15]: 1.6-fold | COX 2 decreased by [16]: 1.7-fold | Superoxide dismutase 2, mitochondrial increased by [17]: 1.7-fold | decrease in body weight gain vs. control ([18]; 20.0 mg/kg, after 20 days): approximately 14 grams | body weight ([18]; 20.0 mg/kg, after 20 days, control 566.0+4.7): 551.8+3.7 grams | decrease in body weight gain vs. control ([18]; 90.0 mg/kg, after 10 days): approximately 17 grams | body weight ([18]; 90.0 mg/kg, after 10 days, control 542.1+6.2): 525.0+5.1 grams | decrease in body weight gain vs. control ([18]; 90.0 mg/kg, after 20 days): 54.2 grams | body weight ([18]; 90.0 mg/kg, after 20 days, control 566.0+4.7): 511.8+4.1 grams | food/water intake among the treatment groups ([18]; 5.0, 20.0 and 90.0 mg/kg body weight, 21 days, vs DMSO control): no significant differences
